Tests used:
[1] = literature; cited from earlier work
[2] = in vivo; set-up: species or system New Zealand Red/White F1 Cross rabbits; conditions: female, New Zealand Red/White F1 Cross, rabbit
Description: In this experiment, female pigmented rabbits were assigned to receive one of two formulations of lifitegrast (#1 and #2) for 5 consecutive days. Each treatment group consisted of 25 rabbits. Animals received a single topical ocular dose of lifitegrast in each eye b.i.d.
(except on study day 5), approximately 12 hours apart (±1 hour), at a target dose level of 1.75 mg/eye/dose (35 μL/eye/dose). On study day 5, animals were dosed in the morning only. Treatment groups 1 and 2 were dosed on separate days. The in-life portion of the study was conducted in May 2014. This study adhered to the ARVO Statement for the Use of Animals in Ophthalmic and Vision Research and all procedures in the study were in compliance with the Animal Welfare Act Regulations (9 CFR 3).
Fifty female New Zealand Red/White F1 Cross rabbits from Covance Research Products (Denver, Pa., USA) were used in the study. The animals were acclimated to study conditions for 13 days before dose administration. At dosing, the animals weighed 3177 to 4271 g and were at least 6 months of age. Animals were housed individually, in suspended stainless steel cages, with food and water ad libitum, and under a 12-hour light/12-hour darkness cycle throughout the study. Animals were not randomized, but were assigned to animal numbers based on overall health and the results of predose ophthalmic examinations. Ophthalmic examinations were performed by a board-certified veterinary ophthalmologist once at baseline (pre dose) using a Kowa hand-held slit-lamp biomicroscope and an indirect ophthalmoscope with a condensing lens to ensure the study animals were healthy and had no ocular findings pre-treatment.
Formulations for the study that would be representative of the clinical material (confirmed by analytical data) were prepared at Covance Laboratories Inc. In each formulation, lifitegrast was added to dose vehicle while stirring, and pH adjusted with hydrochloric acid (HCl) and/or sodium hydroxide (NaOH). The formulation was stirred until a clear solution was obtained, filtered with a 0.22 μm filter (Millipore® Millex-GV, 0.22 μm, Durapore® PVDF) and stored at approximately 5° C. Analysis of the formulations was performed by Almac Sciences, Souderton, Pa., USA, and concentrations were measured as 49.4 and 49.3 mg/mL for formulations #1 and #2, respectively.
Formulation #1: dose vehicle consisted of sterile water for injection, sodium chloride, sodium phosphate dibasic anhydrous, sodium bicarbonate, ethylenediaminetetraacetic acid (EDTA), and sodium thiosulfate pentahydrate, adjusted to a pH of 7.30 with HCl. After addition of lifitegrast (50 mg/mL), the pH was adjusted to 6.90. […]

- Cmax [2]: ≤ 36 ng/g
- Tmax [2]: 15 to 60 min
- half-life ([2]; plasma t1/2): 51 min
- half-life ([2]; t1/2): ~120 min
Structure (SMILES): CS(=O)(=O)c1cccc(C[C@H](NC(=O)c2c(Cl)cc3c(c2Cl)CCN(C(=O)c2ccc4ccoc4c2)C3)C(=O)O)c1 [lifitegrast, Lifitegrast]
- safety profile in clinical trials [1]: generally well tolerated

From patent US20200009130A1, “OCULAR DISTRIBUTION AND PHARMACOKINETICS OF LIFITEGRAST FORMULATIONS” (SARcode Bioscience Inc., priority 2016, published 2020)
